From patent publication US20110104055A1, “SUBSTITUTED N-ARYL BENZAMIDES AND RELATED COMPOUNDS FOR TREATMENT OF AMYLOID DISEASES AND SYNUCLEINOPATHIES” (priority 2002, published 2011)

Experiments:
Type in all cases: biochemical
[1] = target: T1, Aβ 1-42 fibrils (Homo sapiens, UniProt P05067); assay: Thioflavin T fluorometry, disruption of pre-formed Aβ 1-42 fibrils (Example 11); settings: 30 μg pre-fibrillized Aβ 1-42, 37° C., 3 days
T1 construct: purchased Bachem Inc
Description: In one study, Thioflavin T fluorometry was used to determine the effects of the compounds, and of EDTA (as a negative control). In this assay Thioflavin T binds specifically to fibrillar amyloid, and this binding produces a fluorescence enhancement at 485 nm that is directly proportional to the amount of amyloid fibrils formed. The higher the fluorescence, the greater the amount of amyloid fibrils formed (Naki et al., Lab. Invest. 65:104-110, 1991; Levine III, Protein Sci. 2:404-410, 1993; Amyloid: Int. J. Exp. Clin. Invest. 2:1-6, 1995).
(§1) Following 3-days of co-incubation, 50 μl of each incubation mixture was transferred into a 96-well microtiter plate containing 150 μl of distilled water and 50 μl of a Thioflavin T solution (i.e. 500 mM Thioflavin T in 250 mM phosphate buffer, pH 6.8). The fluorescence was read at 485 nm (444 nm excitation wavelength) using an ELISA plate fluorometer after subtraction with buffer alone or compound alone, as blank.

[2] = target: T1, Aβ 1-42 fibrils; assay: Congo red binding assay, Aβ 1-42 fibrils (Example 11); settings: 3-day incubation
Method: (§2) In the Congo red binding assay, the ability of a test compound to alter amyloid (in this case, Aβ) binding to Congo red is quantified. In this assay, Aβ 1-42 and test compounds were incubated for 3 days and then vacuum filtered through a 0.2 μm filter. The amount of Aβ 1-42 retained in the filter was then quantitated following staining of the filter with Congo red. After appropriate washing of the filter, any lowering of the Congo red color on the filter in the presence of the test compound (compared to the Congo red staining of the amyloid protein in the absence of the test compound) was indicative of the test compound's ability to diminish/alter the amount of aggregated and congophilic Aβ.
In one study, the ability of Aβ fibrils to bind Congo red in the absence or presence of increasing amounts of the compounds or EDTA (at Aβ:test compound weight ratios of 1:1, 1:0.1, 1:0.01 or 1:0.001) was determined.

[3] = target: T2, α-synuclein fibrils (Homo sapiens, UniProt P37840); assay: Thioflavin T fluorometry, disruption of pre-formed α-synuclein fibrils (Example 12); settings: 3 days; for % Inhibition α-synuclein (result ± S.D.), Thioflavin T fluorometry: 30 μg pre-fibrillized α-synuclein, 37° C.
T2 construct: purchased rPeptide
Method: In this assay, Thioflavin T binds specifically to α-synuclein fibrils, and this binding produces a fluorescence enhancement at 485 nm that is directly proportional to the amount of α-synuclein fibrils present. The higher the fluorescence, the greater the amount of α-synuclein fibrils present (Naki et al, Lab. Invest. 65:104-110, 1991; Levine III, Protein Sci. 2:404-410, 1993; Amyloid: Int. J. Exp. Clin. Invest. 2:1-6, 1995).
as §1, with “In this study, 30 μg of pre-fibrillized α-synuclein (rPeptide) was incubated at 37° C. for 3 days either alone or in the presence of compounds DC-0051-F1, F2, F3, F4, F5, F6 or EDTA (at α-synuclein:test compound weight ratios of 1:1, 1:0.1, 1:0.01 or 1:0.001). Following” for “Following”

[4] = target: T2, α-synuclein fibrils; assay: Congo red binding assay, α-synuclein fibrils (Example 12); settings: 3-day incubation
Method: as §2, with “of a given test compound” for “of a test compound”, “this case, α-synuclein) binding to” for “this case, Aβ) binding to”, “this assay, α-synuclein and test” for “this assay, Aβ 1-42 and test”, “amount of α-synuclein retained in” for “amount of Aβ 1-42 retained in”, “and congophilic α-synuclein.” for “and congophilic Aβ.”
In one study, the ability of α-synuclein fibrils to bind Congo red in the absence or presence of increasing amounts of compounds DC-0051-F1, F2, F3, F4, F5, F6 and EDTA (at α-synuclein:test compound weight ratios of 1:1, 1:0.1, 1:0.01 or 1:0.001) was determined.

[5] = Aβ:test compound wt/wt ratio 1:0.001
[6] = Aβ:test compound wt/wt ratio 1:0.01
[7] = Aβ:test compound wt/wt ratio 1:0.1
[8] = Aβ:test compound wt/wt ratio 1:1
[9] = α-synuclein:test compound wt/wt ratio 1:0.001
[10] = α-synuclein:test compound wt/wt ratio 1:0.01
[11] = α-synuclein:test compound wt/wt ratio 1:0.1
[12] = α-synuclein:test compound wt/wt ratio 1:1

T1 sequence (P05067 672-713): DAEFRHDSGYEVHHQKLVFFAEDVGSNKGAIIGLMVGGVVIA

% Inhibition Aβ (result ± S.D.), Thioflavin T fluorometry [1, 5]: 15.1 ± 3.81%
% Inhibition Aβ (result ± S.D.), Thioflavin T fluorometry [1, 6]: 34.6 ± 2.21%
% Inhibition Aβ (result ± S.D.), Thioflavin T fluorometry [1, 7]: 92.3 ± 0.19%
% Inhibition Aβ (result ± S.D.), Thioflavin T fluorometry [1, 8]: 99.0 ± 0.77%
% Inhibition Aβ (result ± S.D.), Congo red binding [2, 5]: 0.0 ± 2.64%
% Inhibition Aβ (result ± S.D.), Congo red binding [2, 6]: 0.0 ± 3.25%
% Inhibition Aβ (result ± S.D.), Congo red binding [2, 7]: 23.3 ± 5.01%
% Inhibition Aβ (result ± S.D.), Congo red binding [2, 8]: 74.5 ± 2.69%
disruption/disassembly of pre-formed α-synuclein fibrils, in words ([3]; Thioflavin T fluorometry, all concentrations tested): dose-dependent disruption/disassembly
% Inhibition α-synuclein (result ± S.D.), Thioflavin T fluorometry [3, 9]: 13.8 ± 5.12%
% Inhibition α-synuclein (result ± S.D.), Thioflavin T fluorometry [3, 10]: 59.6±6.39%
% Inhibition α-synuclein (result ± S.D.), Thioflavin T fluorometry [3, 11]: 92.5±2.35%
% Inhibition α-synuclein (result ± S.D.), Thioflavin T fluorometry [3, 12]: 96.8 ± 2.82%
% Inhibition α-synuclein (result ± S.D.), Congo red binding [4, 9]: 0.0 ± 3.93%
% Inhibition α-synuclein (result ± S.D.), Congo red binding [4, 10]: 2.6 ± 4.90%
% Inhibition α-synuclein (result ± S.D.), Congo red binding [4, 11]: 23.3 ± 2.24%
% Inhibition α-synuclein (result ± S.D.), Congo red binding [4, 12]: 55.9 ± 2.65%
SMILES: O=C(Nc1ccc(O)c(O)c1)c1cc(O)c(O)c(F)c1 [DC-0051-F3, 4,5-Dihydroxy-3-fluoro-N-(3,4-dihydroxyphenyl)benzamide]
